As a reminder, the IC50 is the concentration at which inhibition is half-maximal. Read a high IC50 as a need for much substance.

A value given as a limit tells only on which side of the number the result lay.

The target of the assay is T1, glycine site of the NMDA receptor (Rattus norvegicus, UniProt P35439).
T1 construct: rat brain membranes; from tissue; host or cells: rat brain membranes
The assay can be described thus: Binding affinity for the glycine site of the NMDA receptor (test (a)). The settings on record: displacement of a selective glycine site radioligand ([3H]-L-689,560) from rat brain membranes, tris-acetate buffer pH 7.4, 90 minutes. How it is done: (a) Binding affinity for the glycine site of the NMDA receptor
This may be measured by testing a compound's ability to displace a selective glycine site radioligand from rat brain membranes as described in Brit J Pharm (1991), 104, 74. In a variation of this method, thoroughly washed membrane protein is incubated with [^3 H]-L-689,560 for 90 minutes using tris-acetate buffer (pH 7.4). Displacement of the radioligand, using a range of test compound concentrations, is used to derive IC50 (50% inhibitory concentration) values.
Consider `Cc1cc2[nH]c(=O)c(=O)[nH]c2c(N(CC(=O)O)S(C)(=O)=O)c1C` [Example 7, N-(Carboxymethyl)-N-(1,4dihydro-6,7-dimethyl-2,3-dioxoquinoxalin-5-yl)methanesulphonamide], for which the IC50 was < 0.1 µM.

With `CCCOC(=O)CN(c1c(C)c(C)cc2[nH]c(=O)c(=O)[nH]c12)S(C)(=O)=O` [Example 12], the concentration for half-maximal inhibition (IC50) is < 0.1 µM.

In the case of `CS(=O)(=O)NCCN(c1c(Cl)c(Cl)cc2[nH]c(=O)c(=O)[nH]c12)S(C)(=O)=O` [Example 1, N-(1,4-Dihydro-6,7-dichloro-2,3-dioxoquinoxalin-5-yl)-N-(2-(N'-methanesulphonyl)-aminoethyl)methanesulphonamide], the half-maximal inhibitory concentration (IC50) is < 0.1 µM.

For `Cc1c(Cl)cc2[nH]c(=O)c(=O)[nH]c2c1N(CCNS(=O)(=O)C(F)(F)F)S(C)(=O)=O` [Example 4], the concentration for half-maximal inhibition (IC50) is < 0.1 µM.

Take `Cc1c(Cl)cc2[nH]c(=O)c(=O)[nH]c2c1N(CC(=O)O)S(C)(=O)=O` [Example 3, N-(Carboxymethyl)-N-(1,4-dihydro-7-chloro-6-methyl-2,3-dioxoquinoxalin-5-yl)methanesulphonamide]: the IC50 was < 0.1 µM.

`Cc1cc2[nH]c(=O)c(=O)[nH]c2c(N(CC(=O)O)S(C)(=O)=O)c1Cl` [5 [the (-)-isomer]]: the concentration for half-maximal inhibition (IC50) was < 0.1 µM.

Regarding `Cn1cnc(S(=O)(=O)NCCN(c2c(Cl)c(Cl)cc3[nH]c(=O)c(=O)[nH]c23)S(C)(=O)=O)c1` [Example 2, N-(1,4-Dihydro-6,7-dichloro-2,3-dioxoquinoxalin-5-yl)-N-(2-(N'-4-(1H-1-methylimidazolyl)sulphonyl)aminoethyl)methanesulphonamide], the IC50 was < 0.1 µM.

For the molecule `COC(=O)CN(c1c(C)c(C)cc2[nH]c(=O)c(=O)[nH]c12)S(C)(=O)=O` [Example 10], the IC50 was < 0.1 µM.

With `CCOC(=O)CN(c1c(C)c(C)cc2[nH]c(=O)c(=O)[nH]c12)S(C)(=O)=O` [Example 11], the IC50 is < 0.1 µM.

The record behind these values is US5863917A, “Quinoxaline derivatives useful in therapy” (Pfizer, Inc., priority 1996, dated 1999).
